Measurements from patent US12630492B2, “Cannabinoid derivatives” (CANOPY GROWTH CORPORATION, priority 2019, dated 2026).
Where two headings read alike, the source gives them in different places.

How the values were obtained:
[1] = target: T1, human CB1 receptor (Homo sapiens, UniProt P21554); assay: CB1 radioligand competitive binding assay ([3H]CP 55,940 displacement); details: for Selectivity CB1: fold difference between CB1 and CB2 binding, printed in column of receptor with higher affinity, 1.00 in both = same affinity
T1 construct: host or cells: CHO-K1 (Chinese hamster ovary) cells, stably transfected; membranes prepared in house

[2] = target: T2, human CB2 receptor (Homo sapiens, UniProt P34972); assay: CB2 radioligand competitive binding assay ([3H]CP 55,940 displacement); details: for Selectivity CB2: fold difference between CB1 and CB2 binding, printed in column of receptor with higher affinity, 1.00 in both = same affinity
T2 construct: host or cells: CHO-K1 (Chinese hamster ovary) cells, stably transfected; membranes prepared in house

[3] = [3H]CP 55,940 displacement, membranes of CHO-K1 cells expressing human CB1 receptor, read-out: CB1 IC50
[4] = [3H]CP 55,940 displacement, membranes of CHO-K1 cells expressing human CB2 receptor, read-out: CB2 IC50

T1 sequence (P21554 whole entry): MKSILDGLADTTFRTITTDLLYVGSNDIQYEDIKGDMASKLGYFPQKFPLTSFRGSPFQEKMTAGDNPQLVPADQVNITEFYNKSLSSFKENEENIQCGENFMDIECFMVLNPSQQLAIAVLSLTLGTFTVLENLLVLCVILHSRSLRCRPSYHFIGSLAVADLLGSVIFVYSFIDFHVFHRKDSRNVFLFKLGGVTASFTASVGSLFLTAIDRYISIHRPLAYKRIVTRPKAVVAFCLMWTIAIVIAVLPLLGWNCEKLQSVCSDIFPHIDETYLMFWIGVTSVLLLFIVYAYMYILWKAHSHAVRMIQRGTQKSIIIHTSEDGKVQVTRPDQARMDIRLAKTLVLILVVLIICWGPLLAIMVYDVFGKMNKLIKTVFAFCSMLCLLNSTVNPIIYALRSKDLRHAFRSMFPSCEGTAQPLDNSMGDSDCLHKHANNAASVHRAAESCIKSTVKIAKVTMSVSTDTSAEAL
T2 sequence (P34972 whole entry): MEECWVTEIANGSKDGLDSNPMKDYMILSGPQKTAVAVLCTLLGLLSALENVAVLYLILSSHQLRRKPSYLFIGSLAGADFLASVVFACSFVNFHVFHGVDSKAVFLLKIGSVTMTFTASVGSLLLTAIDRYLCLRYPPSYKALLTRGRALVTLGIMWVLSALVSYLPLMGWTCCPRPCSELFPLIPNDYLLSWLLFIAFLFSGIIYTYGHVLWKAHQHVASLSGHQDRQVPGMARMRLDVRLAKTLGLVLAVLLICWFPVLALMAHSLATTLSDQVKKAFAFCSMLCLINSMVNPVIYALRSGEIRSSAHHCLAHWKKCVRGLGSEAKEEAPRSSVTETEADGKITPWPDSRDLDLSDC

SMILES | IC50 [1, 3] [nM] | IC50 [2, 4] [nM] | Selectivity CB2 [2] | IC50 [1] [nM] | Selectivity CB1 [1] | IC50 [2] [nM]
CCCCCc1cc(OCN(C(=O)OC)c2ccccc2)c(-c2cccc(C)c2)c(OCN(C(=O)OC)c2ccccc2)c1 [14′a, dimethyl (((3′-methyl-4-pentyl-[1,1′-biphenyl]-2,6-diyl)bis(oxy))bis(methylene))bis(phenylcarbamate)] | 50 to 990 | 50 to 990 | 4.40 |  |  | 
C=C(C)[C@@H]1CCC(C)=C[C@H]1c1c(O)cc(CCCCC)cc1OCN(C(=O)OC)c1ccccc1 [Compound 14d, methyl (((6-hydroxy-5′-methyl-4-pentyl-2′-(prop-1-en-2-yl)-1′,2′,3′,4′-tetrahydro-[1,1′-biphenyl]-2-yl)oxy)methyl)(phenyl)carbamate] |  |  |  | 50 to 990 | 2.53 | 50 to 990
CCCCCc1cc(OCOC(=O)C(C)(C)C)c(-c2cccc(C)c2)c(OCOC(=O)C(C)(C)C)c1 [8′a, [3-(2,2-dimethylpropanoyloxymethoxy)-2-(m-tolyl)-5-pentyl-phenoxy]methyl 2,2-dimethylpropanoate] | 50 to 990 | 50 to 990 | 7.14 |  |  | 
C=C(C)C1CCC(C)=CC1c1c(OCOC2CCCCC2)cc(CCCCC)cc1OCOC1CCCCC1 (stereo not shown) [18′d, 2′,6′-bis((cyclohexyloxy)methoxy)-5-methyl-4′-pentyl-2-(prop-1-en-2-yl)-1,2,3,4-tetrahydro-1,1′-biphenyl] | > 10000 | > 10000 | 1.00 |  | 1.00 | 
C=C(C)[C@@H]1CCC(C)=C[C@H]1c1c(O)cc(CCC)cc1OCOC(=O)C(C)(C)C [Compound 23d, ((6-hydroxy-5′-methyl-2′-(prop-1-en-2-yl)-4-propyl-1′,2′,3′,4′-tetrahydro-[1,1′-biphenyl]-2-yl)oxy)methyl pivalate] | 1000 to 9990 | 1000 to 9990 | 2.50 |  |  | 
CCCCCc1cc(O)c(-c2cccc(C)c2)c(OCOC(=O)C(C)(C)C)c1 [Compound 8a, [3-hydroxy-2-(m-tolyl)-5-pentyl-phenoxy]methyl 2,2-dimethylpropanoate] | 50 to 990 | < 50 | 9.39 |  |  | 
C=C(C)C1CCC(C)=CC1c1c(O)cc(CCCCC)cc1OCOC1CCCCC1 (stereo not shown) [Compound 18d, 6-((cyclohexyloxy)methoxy)-5′-methyl-4-pentyl-2′-(prop-1-en-2-yl)-1′,2′,3′,4′-tetrahydro-[1,1′-biphenyl]-2-ol] | 1000 to 9990 | 50 to 990 | 3.23 |  |  | 
CCCCCc1cc(OCN(C(=O)OC)c2ccccc2)c(C2C=C(C)CCC2)c(OCN(C(=O)OC)c2ccccc2)c1 (stereo not shown) [14′c, dimethyl (((5′-methyl-4-pentyl-1′,2′,3′,4′-tetrahydro-[1,1′-biphenyl]-2,6-diyl)bis(oxy))bis(methylene))bis(phenylcarbamate)] | 1000 to 9990 | 50 to 990 | 62.50 |  |  | 
C=C(C)[C@@H]1CCC(C)=C[C@H]1c1c(O)cc(CCCCC)cc1OCOC(=O)OCC [Compound 5d, ethyl (((6-hydroxy-5′-methyl-4-pentyl-2′-(prop-1-en-2-yl)-1′,2′,3′,4′-tetrahydro-[1,1′-biphenyl]-2-yl)oxy)methyl) carbonate] |  |  | 2.00 | 1000 to 9990 |  | 1000 to 9990
C=C(C)C1CCC(C)=CC1c1c(O)cc(CCCCC)cc1OCOCC (stereo not shown) [Compound 17d, 6-(ethoxymethoxy)-5′-methyl-4-pentyl-2′-(prop-1-en-2-yl)-1′,2′,3′,4′-tetrahydro-[1,1′-biphenyl]-2-ol] | 1000 to 9990 | 50 to 990 | 1.53 |  |  | 
CCCCCc1cc(O)c(-c2cccc(C)c2)c(OCOCCOC)c1 [Compound 2a, 6-((2-methoxyethoxy)methoxy)-3′-methyl-4-pentyl-[1,1′-biphenyl]-2-ol] | 1000 to 9990 | 50 to 990 | 11.11 |  |  | 
CCCCCc1cc(O)c(-c2cccc(C)c2)c(OCN(C(=O)OC)c2ccccc2)c1 [Compound 14a, methyl (((6-hydroxy-3′-methyl-4-pentyl-[1,1′-biphenyl]-2-yl)oxy)methyl)(phenyl)carbamate] | 1000 to 9990 | 50 to 990 | 9.84 |  |  | 
